In patent US9586961B2, “Homopiperazine derivatives as protein tyrosine kinase inhibitors and pharmaceutical use thereof” (LEO PHARMA A/S, priority 2010, dated 2017):

What was measured:
Assay type in all cases: biochemical
[1] = target: T1, JAK2 (Homo sapiens, UniProt O60674); assay: JAK2 kinase assay (HTRF, inhibition of phosphorylation of a synthetic peptide); settings: catalytic domain, His-tag; 4 μM ATP (Km); read-out: JAK2 kinase inhibitory activity (EC50)
T1 construct: All four purified enzymes contain only the catalytic domain; His (N); purchased Carna Biosciences, Inc; host or cells: baculovirus expression system
T1 sequence (O60674 849-1124 limits assumed): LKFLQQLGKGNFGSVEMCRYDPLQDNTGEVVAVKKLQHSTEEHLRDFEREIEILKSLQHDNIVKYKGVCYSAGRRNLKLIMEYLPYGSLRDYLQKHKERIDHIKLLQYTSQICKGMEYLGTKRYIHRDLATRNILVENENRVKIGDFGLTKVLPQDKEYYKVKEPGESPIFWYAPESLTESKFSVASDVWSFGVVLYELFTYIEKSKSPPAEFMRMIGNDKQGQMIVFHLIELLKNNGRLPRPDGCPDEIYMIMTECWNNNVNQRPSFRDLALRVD
In short: (§1)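 Baculovirus-expressed human catalytic domains (GST-JAK1, GST-TYK2, His-JAK2, His-JAK3) phosphorylated 1 μM TK substrate-biotin at ATP Km (JAK1 7 μM, JAK2 4 μM, JAK3 2 μM, TYK2 13 μM) in pH 7.0 Hepes for 20-30 min at RT, 0.75% DMSO. EDTA stop, then overnight streptavidin-XL665/cryptate-antibody detection and HTRF read.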

[2] = target: T2, TYK2 (Homo sapiens, UniProt P29597); assay: TYK2 kinase assay (HTRF, inhibition of phosphorylation of a synthetic peptide); settings: catalytic domain aa 871-1187, GST-tag; 13 μM ATP (Km); read-out: TYK2 kinase inhibitory activity (EC50)
T2 construct: JAK1 (aa 850-1154) and TYK2 (aa 871-1187) are expressed with an N-terminally fused GST-tag; GST (N); purchased Carna Biosciences, Inc; host or cells: baculovirus expression system
T2 sequence (P29597 871-1187): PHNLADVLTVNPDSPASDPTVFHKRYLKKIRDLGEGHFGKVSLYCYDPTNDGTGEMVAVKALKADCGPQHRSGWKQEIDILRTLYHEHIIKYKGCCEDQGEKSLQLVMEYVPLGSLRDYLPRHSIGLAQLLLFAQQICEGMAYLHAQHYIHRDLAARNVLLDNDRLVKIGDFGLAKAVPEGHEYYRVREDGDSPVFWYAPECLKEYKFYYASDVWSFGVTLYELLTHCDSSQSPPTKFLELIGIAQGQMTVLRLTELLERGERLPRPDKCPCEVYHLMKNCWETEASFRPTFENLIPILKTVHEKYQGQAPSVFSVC
In short: as §1

[3] = target: T3, JAK3 (Homo sapiens, UniProt P52333); assay: JAK3 kinase assay (HTRF, inhibition of phosphorylation of a synthetic peptide); settings: catalytic domain, His-tag; 2 μM ATP (Km); read-out: JAK3 kinase inhibitory activity (EC50)
T3 construct: All four purified enzymes contain only the catalytic domain; His (N); purchased Carna Biosciences, Inc; host or cells: baculovirus expression system
T3 sequence (P52333 822-1111 limits assumed): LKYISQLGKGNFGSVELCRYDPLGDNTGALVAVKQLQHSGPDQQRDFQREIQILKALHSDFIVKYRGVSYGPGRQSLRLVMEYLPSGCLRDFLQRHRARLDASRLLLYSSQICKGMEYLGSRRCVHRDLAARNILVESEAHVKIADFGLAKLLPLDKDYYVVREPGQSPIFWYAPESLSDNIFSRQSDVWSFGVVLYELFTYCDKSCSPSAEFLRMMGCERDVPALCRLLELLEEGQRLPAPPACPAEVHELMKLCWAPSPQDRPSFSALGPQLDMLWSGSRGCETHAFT
In short: as §1

[4] = target: T4, JAK1 (Homo sapiens, UniProt P23458); assay: JAK1 kinase assay (HTRF, inhibition of phosphorylation of a synthetic peptide); settings: catalytic domain aa 850-1154, GST-tag; 7 μM ATP (Km); read-out: JAK1 kinase inhibitory activity (EC50)
T4 construct: JAK1 (aa 850-1154) and TYK2 (aa 871-1187) are expressed with an N-terminally fused GST-tag; GST (N); purchased Carna Biosciences, Inc; host or cells: baculovirus expression system
T4 sequence (P23458 850-1154): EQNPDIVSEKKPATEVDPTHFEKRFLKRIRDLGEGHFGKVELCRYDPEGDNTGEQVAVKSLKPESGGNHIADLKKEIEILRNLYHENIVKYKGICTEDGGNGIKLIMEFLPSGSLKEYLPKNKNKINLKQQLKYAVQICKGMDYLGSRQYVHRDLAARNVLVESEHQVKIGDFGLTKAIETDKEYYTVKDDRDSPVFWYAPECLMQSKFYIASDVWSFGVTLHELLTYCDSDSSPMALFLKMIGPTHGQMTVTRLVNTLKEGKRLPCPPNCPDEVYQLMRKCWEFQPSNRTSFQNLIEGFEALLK
In short: as §1

Row | Compound | EC50 [1] [nM] | EC50 [2] [nM] | EC50 [3] [nM] | EC50 [4] [nM]
1 | N#Cc1ccc(C(=O)N2CCCN(c3ncnc4[nH]ccc34)CC23CC3)s1 [Example 120, 5-[5-(7H-pyrrolo[2,3-d]pyrimidin-4-yl)-5,9-diazaspiro[2.6]nonane-9-carbonyl]thiophene-2-carbonitrile] | < 100 | 100 to 1000 | < 100 | < 100
2 | O=C(c1cc2c(s1)CCC2)N1CCN(c2ncnc3[nH]ccc23)CC2(CC2)C1 [Example 21, 5,6-dihydro-4H-cyclopenta[b]thiophen-2-yl-[5-(7H-pyrrolo[2,3-d]pyrimidin-4-yl)-5,8-diazaspiro[2.6]nonan-8-yl]methanone] | 100 to 1000 | > 1000 | 100 to 1000 | 100 to 1000
3 | N#CCc1ccc(C(=O)N2CCN(c3ncnc4[nH]ccc34)CC3(CC3)C2)cc1 [Example 12, {4-[8-(7H-pyrrolo[2,3-d]pyrimidin-4-yl)-5,8-diazaspiro[2.6]nonane-5-carbonyl]phenyl}acetonitrile] | 100 to 1000 | > 1000 | > 1000 | 100 to 1000
4 | O=C(Cc1ccc(Br)cc1)N1CCN(c2ncnc3[nH]ccc23)CC2(CC2)C1 [Example 264, 2-(4-bromophenyl)-1-[5-(7H-pyrrolo[2,3-d]pyrimidin-4-yl)-5,8-diazaspiro[2.6]nonan-8-yl]ethanone] | < 100 | 100 to 1000 | < 100 | < 100
5 | N#CCOc1cccc(CC(=O)N2CCN(c3ncnc4[nH]ccc34)CC3(CC3)C2)c1 [Example 17, 2-[3-[2-oxo-2-[5-(7H-pyrrolo[2,3-d]pyrimidin-4-yl)-5,8-diazaspiro[2.6]nonan-8-yl]ethyl]phenoxy]acetonitrile] | 100 to 1000 | > 1000 | 100 to 1000 | 100 to 1000
6 | O=C(Cc1ccc(OC(F)(F)F)cc1)N1CCN(c2ncnc3[nH]ccc23)CC2(CC2)C1 [Example 274, 1-[5-(7H-pyrrolo[2,3-d]pyrimidin-4-yl)-5,8-diazaspiro[2.6]nonan-8-yl]-2-[4-(trifluoromethoxy)phenyl]ethanone] | < 100 | > 1000 | 100 to 1000 | < 100
7 | CC1CN(c2ncnc3[nH]ccc23)CC2(CC2)CN1 (stereo not drawn) [Example 293] | > 1000 | > 1000 | > 1000 | > 1000
8 | S=C(Nc1ccccc1)N1CCCN(c2ncnc3[nH]ccc23)CC12CC2 [Example 91, N-phenyl-5-(7H-pyrrolo[2,3-d]pyrimidin-4-yl)-5,9-diazaspiro[2.6]nonane-9-carbothioamide] | < 100 | > 1000 | 100 to 1000 | < 100
9 | N#Cc1ccc(C(=O)N2CCN(c3ncnc4[nH]ccc34)CC3(CC3)C2)cc1F [Example 42, 2-fluoro-4-[5-(7H-pyrrolo[2,3-d]pyrimidin-4-yl)-5,8-diazaspiro[2.6]nonane-8-carbonyl]benzonitrile] | 100 to 1000 | > 1000 | 100 to 1000 | 100 to 1000
10 | NS(=O)(=O)c1ccc(NC(=O)C(=O)N2CCN(c3ncnc4[nH]ccc34)CC3(CC3)C2)cc1 [Example 64, 2-oxo-2-[5-(7H-pyrrolo[2,3-d]pyrimidin-4-yl)-5,8-diazaspiro[2.6]nonan-8-yl]-N-(4-sulfamoylphenyl)acetamide] | < 100 | 100 to 1000 | < 100 | < 100
11 | NS(=O)(=O)c1ccc(C(=O)N2CCN(c3ncnc4[nH]ccc34)CC3(CC3)C2)cc1 [Example 31, 4-[5-(7H-pyrrolo[2,3-d]pyrimidin-4-yl)-5,8-diazaspiro[2.6]nonane-8-carbonyl]benzenesulfonamide] | < 100 | 100 to 1000 | < 100 | < 100
12 | NS(=O)(=O)c1ccc(C(=O)N2CCN(c3ncnc4[nH]ccc34)CC3(CC3)C2)cc1Cl [Example 32, 2-chloro-4-[5-(7H-pyrrolo[2,3-d]pyrimidin-4-yl)-5,8-diazaspiro[2.6]nonane-8-carbonyl]benzenesulfonamide] | 100 to 1000 | > 1000 | 100 to 1000 | < 100
